From publication PMC3362575, “Synthesis and Biological Evaluation of Phenanthrenes as Cytotoxic Agents with Pharmacophore Modeling and ChemGPS-NP Prediction as Topo II Inhibitors” (PLoS ONE, 2012)
≈ marks a conversion by molar mass, not a printed value.

Assays:
[1] = test system: HepG2; experiment: MTT cytotoxicity assay, HepG2; assay type: cell-based, human; conditions: for IC50: Homo sapiens
Method: (§1) The cytotoxic assay of 11 naturally occurring and 19 synthesized phenanthrenes was carried out on a diverse set of human liver (HepG2 and Hep3B), oral (Ca9-22), lung (A549) and breast (MEA-MB-231 and MCF7) cancer cell lines, and a human fetal lung fibroblast (MRC-5) cell line (Tables 1 and 2).
(§2) Compounds were tested against human liver (HepG2 and Hep3B), oral (Ca9-22), lung (A549), breast (MEA-MB-231 and MCF7) cancer cell lines, and the human fetal lung fibroblast (MRC-5) cell line using an established colorimetric MTT assay protocol. The absorbance was measured at 550 nm using a microplate reader. The IC50 is the concentration of agent that reduced cell growth by 50% under the experimental conditions.

[2] = test system: A549; experiment: MTT cytotoxicity assay, A549; assay type: cell-based, human; conditions: for IC50: Homo sapiens
Method: as §1, §2

[3] = test system: MDA-MB-231; experiment: MTT cytotoxicity assay, MDA-MB-231; assay type: cell-based, human; conditions: for IC50: Homo sapiens
Method: as §1, §2

[4] = test system: Hep3B; experiment: MTT cytotoxicity assay, Hep3B; assay type: cell-based, human; conditions: for IC50: Homo sapiens, Hep3B
Method: as §1, §2

[5] = test system: MCF-7; experiment: MTT cytotoxicity assay, MCF-7; assay type: cell-based, human; conditions: for IC50 / MCF-7 activity class (from IC50): Homo sapiens; for MCF-7 activity class (from IC50): MCF7, Table S3, read-out: Scale Exptl. (MCF-7 activity class)
Method: as §1, §2
The pharmacophore modeling with Catalyst HypoGen was performed via Discovery Studio 2.1 (Accelrys, San Diego, CA, USA). Twenty-nine phenanthrene derivatives were collected from the natural plant, C. arisanensis, and from chemical synthesis (Figure 2). Cytotoxicity against MCF-7 cells was determined by the MTT assay and the concentration (µg/mL) of test compound which inhibited 50% of the cancer cells (IC50) was used in the generation of the pharmacophore model. An IC50 value of >20 µg/mL was defined as 20 µg/mL. All experimental IC50 values spanned about 2–3 orders of magnitude from 0.09 to 20 µg/mL. The 2D/3D structures of compounds were generated using ChemBioOffice 2008 (Cambridge Scientic Computing, Cambridge, Massachusetts, USA) and then optimized in a Dreiding force field. The conformational ensemble of each compound was generated using the best conformational analysis method based on a CHARMM force field with a 20 kcal/mol energy threshold above the global minimum. A maximum limit of 255 conformations was used to cover maximum conformational space. The best 3D arrangements of chemical functionalities should explain the activity variations among the 29 compounds. Thirty runs with different parameters were performed for the best pharmacophore hypothesis. Four chemical features, including hydrogen-bond acceptor (HBA), hydrogen-bond donor (HBD), hydrophobic (HYD), and aromatic ring (AR) features, were also tested during the building of pharmacophore hypotheses (Table S1; Text S1). The best hypotheses were selected via a correlation and a cost analysis in Catalyst HypoGen.

[6] = test system: MRC-5; experiment: MTT cytotoxicity assay, MRC-5 fetal lung fibroblast; assay type: cell-based, human; conditions: normal fetal lung fibroblast; for IC50: Homo sapiens
Method: as §1, §2

[7] = test system: Ca9-22; experiment: MTT cytotoxicity assay, Ca9-22; assay type: cell-based, human; conditions: for IC50: Homo sapiens
Method: as §1, §2

[8] = test system: human cancer cell lines; experiment: MTT cytotoxicity assay, ranges over the cancer cell line panel; assay type: cell-based; conditions: Homo sapiens, range over the cancer cell lines tested; read-out: IC50 against various / all human cancer cell lines
Method: as §1, §2

[9] = HepG2, Table 1, natural phenanthrenes
[10] = A549, Table 1, natural phenanthrenes
[11] = MDA-MB-231, Table 1, natural phenanthrenes
[12] = MCF7, Table 1, natural phenanthrenes, MTT
[13] = MRC5, Table 1, natural phenanthrenes
[14] = Ca9-22, Table 1, natural phenanthrenes
[15] = HepG2, Table 2, synthesized phenanthrenes
[16] = A549, Table 2, synthesized phenanthrenes
[17] = MDA-MB-231, Table 2, synthesized phenanthrenes
[18] = Table 2, synthesized phenanthrenes
[19] = MCF7, Table 2, synthesized phenanthrenes, MTT
[20] = MRC5, Table 2, synthesized phenanthrenes
[21] = Ca9-22, Table 2, synthesized phenanthrenes

| Molecule | IC50 [1, 9] [µg/mL] | IC50 [2, 10] [µg/mL] | IC50 [3, 11] [µg/mL] | IC50 ([4]; Table 1, natural phenanthrenes) [µg/mL] | IC50 [5, 12] [µg/mL] | MCF-7 activity class (from IC50) [5] [µg/mL] | IC50 [6, 13] [µg/mL] | IC50 [7, 14] [µg/mL] | IC50 [1, 15] [µg/mL] | IC50 [2, 16] [µg/mL] | IC50 [3, 17] [µg/mL] | IC50 [4, 18] [µg/mL] | IC50 [5, 19] [µg/mL] | IC50 [6, 20] [µg/mL] | IC50 [7, 21] [µg/mL] | also measured |
| --- | --- | --- | --- | --- | --- | --- | --- | --- | --- | --- | --- | --- | --- | --- | --- | --- |
| COc1cc2c(c(OC)c1O)C1=C(CC2)C(=O)C=CC1=O [CA-3] | 19.76 ± 0.16 (≈ 69 µM) | > 20 | 11.9 ± 0.02 (≈ 41.6 µM) | 6.02 ± 0.12 (≈ 21 µM) | 13.2 (≈ 46.3 µM) | 1 to 20 | > 20 | 12.6 ± 0.76 (≈ 43.8 µM) | – | – | – | – | – | – | – | – |
| COc1cc2ccc3c(OC)ccc(OC)c3c2c(OC)c1OC [Compound 3a, 1,4,5,6,7-Pentamethoxy-phenanthrene] | – | – | – | – | – | > 20 | – | – | > 20 | > 20 | > 20 | 15.55 ± 0.08 (≈ 47.4 µM) | > 20 | > 20 | > 20 | – |
| COc1c(O)cc2c(c1OC)-c1c(O)ccc(O)c1CC2 [CA-5] | 17.8 ± 0.4 (≈ 61.7 µM) | > 20 | 11.7 ± 0.13 (≈ 40.4 µM) | 9.87 ± 0.09 (≈ 34.2 µM) | 12.7 ± 0.07 (≈ 44.1 µM) | 1 to 20 | > 20 | 12.17 ± 0.03 (≈ 42.2 µM) | – | – | – | – | – | – | – | – |
| 5,6,7,5′,6′,7′-hexamethoxy-[8,8′]bi-1,4-phenanthrenequinone [Compound 4c] | – | – | – | – | – | – | – | – | – | – | – | – | – | – | – | IC50 HepG2 [1, 18]: 6.87 ± 0.10 µg/mL; IC50 A549 [2, 18]: 12.65 ± 0.48 µg/mL; IC50 MDA-MB-231 [3, 18]: 4.09 ± 0.12 µg/mL; IC50 Hep3B [4, 18]: 4.37 ± 0.00 µg/mL; IC50 MCF-7 ([5]; Table 2, synthesized phenanthrenes, MTT): 4.71 ± 0.26 µg/mL; Scale Exptl. (MCF-7 activity class) ([5]; Table S3): ++ (moderately active (1.0 μg/mL < IC50 < 20.0 μg/mL, ++)); IC50 MRC-5 [6, 18]: 5.37 ± 0.25 µg/mL; IC50 Ca9-22 [7, 18]: 1.90 ± 0.01 µg/mL |
| COc1cccc2c1C(=O)c1c(O)c3c(c(O)c1C2=O)C[C@@](O)(C(=O)CO)C[C@@H]3O[C@H]1C[C@H](N)[C@H](O)[C@H](C)O1 [Doxo, Doxorubicin, reference compound] | 0.22 ± 0.04 (≈ 0.405 µM) | 0.81 ± 0.04 (≈ 1.49 µM) | 0.74 ± 0.01 (≈ 1.36 µM) | 0.49 (≈ 0.902 µM) | 0.67 ± 0.03 (≈ 1.23 µM) | – | 1.94 ± 0.02 (≈ 3.57 µM) | 0.16 ± 0.02 (≈ 0.294 µM) | – | 0.63 ± 0.15 (≈ 1.16 µM) | 1.12 ± 0.05 (≈ 2.06 µM) | 0.42 ± 0.01 (≈ 0.773 µM) | 0.35 ± 0.09 (≈ 0.644 µM) | – | 0.14 ± 0.04 (≈ 0.258 µM) | – |
| COc1cc2c(cc1O)CCc1cc(O)cc(OC)c1-2 [CA-9] | > 20 | 18.1 ± 0.26 (≈ 66.5 µM) | 19.5 ± 0.58 (≈ 71.5 µM) | 12.9 ± 0.32 (≈ 47.3 µM) | 10.2 ± 0.27 (≈ 37.6 µM) | 1 to 20 | > 20 | 13 ± 0.42 (≈ 47.7 µM) | – | – | – | – | – | – | – | – |
| COc1cc2ccc3c(c2c(OC)c1OC)C(=O)C=CC3=O [Compound 4a, 5,6,7-Trimethoxy-1,4-phenanthrenequinone] | – | – | – | – | – | 1 to 20 | – | – | 15.68 ± 0.01 (≈ 52.6 µM) | 15.94 ± 0.01 (≈ 53.4 µM) | 4.6 ± 0.06 (≈ 15.4 µM) | 7.33 ± 0.03 (≈ 24.6 µM) | 13.2 ± 0.38 (≈ 44.2 µM) | 11.9 ± 0.12 (≈ 40 µM) | 2.17 ± 0.01 (≈ 7.27 µM) | – |
| COc1cc2ccc3c(OC)ccc(OC)c3c2c(O)c1O [Compound 8a, 5,6-Dihydroxy-1,4,7-trimethoxy-phenanthrene] | – | – | – | – | – | 1 to 20 | – | – | 19.4 ± 0.56 (≈ 64.5 µM) | > 20 | 15.6 ± 1.52 (≈ 52 µM) | 5.77 ± 0.63 (≈ 19.2 µM) | 17 ± 0.42 (≈ 56.6 µM) | > 20 | 3.91 ± 0.07 (≈ 13 µM) | – |
| COC1=CC(=O)c2ccc3cc(OC)cc(O)c3c2C1=O [Compound 6b, 5-Hydroxy-3,7-dimethoxy-1,4-phenanthrenequinone] | – | – | – | – | – | – | – | – | 0.23 ± 0.01 (≈ 0.809 µM) | 0.99 ± 0.02 (≈ 3.48 µM) | 1.06 ± 0.03 (≈ 3.73 µM) | 0.34 (≈ 1.2 µM) | 0.26 (≈ 0.915 µM) | 2.14 ± 0.08 (≈ 7.53 µM) | 0.68 (≈ 2.39 µM) | IC50 [8]: 0.08 to 1.66 µg/mL (≈ 0.281 to 5.84 µM) |
| COc1cc(OC)c2c(ccc3c(OC)ccc(OC)c32)c1 [Compound 3b, 1,4,5,7-Tetramethoxy-phenanthrene] | – | – | – | – | – | > 20 | – | – | > 20 | > 20 | > 20 | > 20 | > 20 | > 20 | 18.44 ± 0.11 (≈ 61.8 µM) | – |
| COc1cc2c(c(OC)c1OC)-c1c(O)ccc(O)c1CC2 [CA-6] | > 20 | > 20 | > 20 | 11.5 ± 0.76 (≈ 38 µM) | > 20 | > 20 | > 20 | 14.6 ± 0.31 (≈ 48.2 µM) | – | – | – | – | – | – | – | – |
